According to patent publication US8252843B2, “Compounds for the treatment of AIDS and other viral diseases” (Novaremed Limited, priority 2004, dated 2012):

Key:
PBMC cells = test: Toxicity against PBMC cells by Alamar Blue reagent; details: 24 h and 48 h incubation
Procedure: Human PBMC cells were obtained from a blood bank and plated out on a standard 96-well plate at a concentration of 10^5 cells/well. PHA (10 μg/ml) and AV 61S (or AV 74S) at different dilutions in DMSO of 100 μg/ml, 50 μg/ml, 25 μg/ml, 10 μg/ml and 1 μg/ml were added simultaneously to each well. The cells were incubated for 24 hours.
After 24 hours, Alamar Blue reagent was added up to 10% of the total well volume.
The controls were medium only and CsA (1 mg/1 ml EtOH).
The contents of each well were then assayed 1 hour, 3 hours and 6 hours after addition of Alamar Blue by fluorescence in the manner known to those skilled in the art to determine the viability of the PBMCs.

PHA-activated PBMCs [1] = test: Example 10: [3H]-thymidine proliferation of PHA-activated PBMCs, compound diluted in DMSO; type: cell-based, human; details: for inhibition relative to the controls: DMSO 0.25%; for inhibitory effect on PBMCs (summary of Examples 9 and 10): 100 and 50 μg/ml (61S), 100, 50 and 25 (74S)
Procedure: (§1) Human PBMCs were prepared from a blood bank and plated out at a concentration of 10^5 cells per well in a standard 96-well plate. PHA was added to each well at a concentration of 10 μg/ml together with AV 61S or PPG-7 (both in PBS) at concentrations of 50 μg/ml, 1 μg/ml, 100 ng/ml, 1 ng/ml and 100 pg/ml respectively for AV 61S and 50 μg/ml, 1 μg/ml and 10 ng/ml for PPG-7. The cells were then incubated for 7 days. [3H]-thymidine (NET-027 Thymidine [methyl-3H] from NEN 6.7 Ci/mmol Batch 3106446) was added to each well 48 hours after plating at a concentration of 1 mCi/well; a second dose was added to each well 18 hours before the end of the experiment. The cells were then harvested and counted for 1 min./sample.
Example 9 was repeated using separately compounds AV 61S, AV 61R and AV 74S and AV 74R. In each case the test compound was diluted in DMSO to a final concentration of 0.25%. A single dose of [3H]-thymidine (NET-027 Thymidine [methyl-3H] from NEN 6.7 Ci/mmol Batch 3106446) was added to each well 18 hours before the end of the experiment.

PHA-activated PBMCs [2] = test: Example 9: [3H]-thymidine proliferation of PHA-activated PBMCs, compound in PBS; type: cell-based, human; details: 50 μg/ml, 7 days, PHA 10 μg/ml
Procedure: as §1
The controls were medium alone and CsA (1 mg in 1 ml ethanol).

| Substance | toxicity (Alamar Blue dyeing) (PBMC cells; 100 μg/ml) | toxicity (Alamar Blue dyeing) (PBMC cells; all concentrations 1-100 μg/ml except AV 74S at 100 μg/ml) | inhibition relative to the controls (PHA-activated PBMCs [1]; 50 μg/ml) | inhibition relative to the controls (PHA-activated PBMCs [1]; 100 μg/ml) | inhibitory effect on PBMCs (summary of Examples 9 and 10) (PHA-activated PBMCs [1]) | inhibition relative to the controls (PHA-activated PBMCs [2]) |
| --- | --- | --- | --- | --- | --- | --- |
| (S) 2-N (3-O-(polypropyleneglycol)-1-propyl-4-hydroxybenzene)-3-phenylpropylamide [AV 74S] | same activity and toxicity pattern as Cyclosporine (CsA) | non-toxic effect | 81% | 100% | inhibitory effect | – |
| (S) 2-N (3-O-polypropyleneglycol)propylbenzene)-3-(4-hydroxyphenyl)propylamide [AV 61S] | – | – | about 49% | about 97% | inhibitory effect | 60% |
